Reference: ChEMBL document CHEMBL3507680, “University of Dundee, Gates Library screen for HepG2 cell viability”

Assay: Human HepG2 cell viability assay in 384 well format
Format: toxicity, cell-based
Design: dose 125 nL, time 70.5 hour; cytotoxicity at 70.5 h: concentration not given beside the values
Details: HepG2 cells, read-out: Inhibition

| SMILES | cytotoxicity at 70.5 h [%] |
| --- | --- |
| O=C(c1ccno1)N1CCOC[C@H](Oc2ccccc2)C1 | -3.41 |
| O=S(=O)(Cc1ccccc1)NC[C@H]1Cn2ccnc2CO1 | 10.3 |
| CC(C)(C)CN[C@@H]1CO[C@H](CNC(=O)c2cccs2)[C@H]1O | 4.02 |
| O=C(NC[C@H]1OC[C@@H](NC2CCC2)[C@@H]1O)Nc1ccccc1 | 16.4 |
| O=C1CCC2(CCCN(C(=O)Cc3ccccc3)C2)N1 (configuration not stated) | 5.57 |
| O=C1CCC2(CCCN(C(=O)Cc3ccccn3)C2)N1 (configuration not stated) | 2.4 |
| CC(=O)N1CCN(C(=O)Nc2ccccc2)CC2(CC(=O)N(C)C2)C1 (configuration not stated) | 26.3 |
| Cc1ccc(C(=O)N2CCC3(CC2)CC(NC(=O)C(C)C)CO3)cc1 (configuration not stated) | 5.27 |
| CC(C)NC(=O)N1CCOC2(CCCNC2)C1 (configuration not stated) | 4.28 |
| CCCC(=O)N1CCC2(CC1)COC2 | -7.56 |
| O=S(=O)(c1ccccc1)N1C[C@@H]2CCN[C@@H]2C1 | -7.19 |
| O=C(N[C@]12CC1CN(C(=O)c1ccco1)C2)c1cccc(F)c1 (some centres not stated) | 13.8 |
| O=C1NCCC12CN(CC1CC1)CC21CCNCC1 (configuration not stated) | -6.52 |
| O=C(N[C@]12CC1CN(C(=O)c1ccco1)C2)c1ccco1 (some centres not stated) | -2.69 |
| CN(Cc1ccco1)C1CCC12CCN(C(=O)c1ccncc1)CC2 (configuration not stated) | -5.53 |
| Cc1ccc(S(=O)(=O)N2C[C@@H]3CCN[C@@H]3C2)cc1 | -4.81 |
| O=C1CCC2(CCCN(C(=O)c3cccnc3)CC2)N1 (configuration not stated) | -3.4 |
| CN(C)C(=O)CN1CCC2(CC1)COC2 | -5.41 |
| CN1CCC2(CCN(C(=O)c3ccccc3)CC2)C1 | 31.4 |
| CC(C)C(=O)N1CCC2(CC1)[C@@H]1CN(C(=O)N(C)C)C[C@@H]1C(=O)N2C | 28.3 |
| CC(=O)N1CCOC2(CCCN(C(=O)CCN3CCCCC3)C2)C1 (configuration not stated) | -1.24 |
| CCC(C)N1CCc2c(C(=O)N3CCOCC3)n[nH]c2C1 (configuration not stated) | -3.05 |

| SMILES | cytotoxicity at 70.5 h [%] |
| --- | --- |
| C[C@@H]1C[C@H]2CN(C(=O)C3=CCCC3)C[C@H]2O1 | -4.11 |
| CCN1C[C@@H]2CN(S(=O)(=O)c3cccs3)C[C@@H]2C1=O | -8.27 |
| Cn1cc(CN2CCc3c(c(COCC#N)nn3C)C2)cn1 | -13.6 |
| CCc1ccc(CN2CCC3(CC2)C(=O)N(C)CCN3CC)cc1 | -10.4 |
| CCN1CC[C@@]2(C(=O)N(C)C)CCN(C(=O)NC(C)C)CC[C@@H]12 | -4.36 |
| CN(C)CCN1CC[C@H]2[C@@H]1CCN2Cc1ccc2c(c1)OCO2 | -4.2 |
| O=C(C1CCCCC1)N1C[C@@H]2CCNC[C@@H]21 | -4.1 |
| CN1CCCC2(C1)CN(C(=O)C1CCCCC1)CCO2 (configuration not stated) | -4.05 |
| CCN1CCc2c(c(COC)nn2C)C1 | -10.5 |
| CN(C)C(=O)N1Cc2ccccc2C2(CCN(C3CCOCC3)CC2)C1 | -10.7 |
| C[C@@H]1C[C@H]2CN(C(=O)C3=CCCCC3)C[C@H]2O1 | -10.1 |
| CC(C)CNC(=O)N1C[C@H]2CCN[C@H]2C1 | -8.65 |
| O=C(c1ccc(F)c(F)c1)N1C[C@H]2CNC[C@H]2C1 | -11.5 |
| Cc1ccc(CN2CCC3(CCN(S(=O)(=O)c4ccccc4)C3)C2)o1 (configuration not stated) | 27.1 |
| O=C(C1CCC1)N1C[C@H]2CNC[C@H]2C1 | 13.3 |
| O=C(c1ccoc1)N1CC[C@H]2[C@H]1CCN2CC1CC1 | -3.04 |
| c1cc(CN2CCC3(CC2)COC(COCC2CC2)C3)co1 (configuration not stated) | -20.3 |
| CC(C)NC(=O)N1CCCC2(CCN(c3ccsc3)C2=O)C1 (configuration not stated) | -12.5 |
| O=C(c1ccoc1)N1CCOCC2(CCN(Cc3cccs3)C2)C1 (configuration not stated) | -12.4 |
| O=C(NCc1ccco1)[C@@H]1C[C@H]2OCC[C@H]2N(c2ncc(F)cn2)C1 | -14.6 |
| O=C(c1ccco1)N1CCOCC2(C1)CN(c1ccccn1)C(=O)CO2 (configuration not stated) | -4.96 |
| CCOCC1CN(C(=O)c2ccoc2C)Cc2cnn(C)c21 (configuration not stated) | 28.1 |

| SMILES | cytotoxicity at 70.5 h [%] |
| --- | --- |
| CCOC(=O)CN1C[C@@H]2OCCN(c3ncc(F)cn3)[C@@H]2C1 | 21.2 |
| CN(C)Cc1cn2c(n1)CN(C1CCOC1)CC2 (configuration not stated) | -1.23 |
| CN(Cc1cccnc1)Cc1cn2c(n1)CN(C1CCOCC1)CC2 | -4.27 |
| COC(=O)CCC(=O)N1CCC2(CN(Cc3ccc(Cl)cc3)C2)C1 | -6.67 |
| Cc1ccoc1C(=O)N1CCO[C@H]2[C@H](OCc3ccncc3)CC[C@@H]21 | -0.105 |
| Cn1cc(CN2C[C@@H]3COC[C@]3(C(=O)NCc3cccs3)C2)cn1 | -6.51 |
| CN(C)C(=O)[C@@H]1C[C@@H]2CCN(C3CCOCC3)C[C@@H]2O1 | 12.2 |
| CC(C)Oc1ncnc2c1CCN(c1cc(C(F)(F)F)ncn1)CC2 | 4.68 |
| CC(C)Nc1ncnc2c1CCN(c1cc(C(F)(F)F)ncn1)CC2 | 3.48 |
| CCOc1ncnc2c1CCN(c1cc(C(F)(F)F)ncn1)CC2 | 3.85 |
| Cn1cc(CN2CCCn3cnc(COCc4ccco4)c3C2)cn1 | 3.06 |
| CN(C)C(=O)[C@H]1C[C@@H]2CN(c3ncccn3)C[C@H]1O2 | -4.11 |
| COC(=O)NCC1CCC2(CCNCC2)O1 (configuration not stated) | 28.3 |
| CC(C)C(=O)N1C[C@H]2CCCN[C@H]2C1 | -5.18 |
| CC(C)(C)CC(=O)N1C[C@@H]2C[C@H]1CN2 | -8.19 |
| O=C(C1CCCCC1)N1C[C@H]2CNC[C@H]2C1 | -11 |
| O[C@@H]1C[C@@](CNCC2CCCC2)(COc2cccnc2)C[C@@H]1O | -6.04 |
| COCC(=O)N1CCC2(CCC2N(C)Cc2ccco2)CC1 (configuration not stated) | 3.06 |
| COCc1nn(CC2CC2)c2c1CN(Cc1cncn1C)CC2 | 2.02 |
| Cc1ccc(CN2CCCC3(CCCC(=O)N3)C2)s1 (configuration not stated) | -8.14 |
| Cn1nc(COCC2CC2)c2c1CCN(Cc1ccco1)C2 | -9.54 |
| CN(C)C(=O)N1CCC2(CC1)CN(CC1CC1)CC21CCNC1=O (configuration not stated) | 0.0936 |

| SMILES | cytotoxicity at 70.5 h [%] |
| --- | --- |
| O=C(C1CCCCC1)N1CCCC2(CCN(c3cnccn3)CC2)C1 | 23.6 |
| CCN1CCN(C)C(=O)C12CCN(Cc1cccc(C)c1)CC2 | 2.19 |
| CCN1CC[C@@]2(C(=O)N3CCOCC3)CCN(C(=O)NC)CC[C@@H]12 | -10.8 |
| CN(C)C(=O)N1CCc2onc(C(=O)Nc3cccnc3)c2C1 | -19.2 |
| CCc1ccc(CN2CCC3(CC2)C(=O)N(C)CCN3CC2CC2)cc1 | -13.9 |
| CS(=O)(=O)N1CC[C@@H]2[C@@H]1CCN2Cc1ccc2c(c1)OCO2 | -0.795 |
| CC(C)NC(=O)N1CCc2onc(C(=O)Nc3cccnc3)c2C1 | -9.09 |
| O=C(c1ccc(F)cc1)N1CC[C@H]2[C@H]1CCN2CC1CC1 | -17.1 |
| COCCN1C[C@@H](c2ccccc2)[C@@]2(CCN(CC(=O)N(C)C)C2=O)C1 | -9.6 |
| Cc1ccc(CN2CCC3(CCC(C(=O)N(C)C)O3)CC2)o1 (configuration not stated) | -23.2 |
| C[C@@H]1CN(Cc2ccoc2)C[C@]12CCN(CC(=O)N(C)C)C2=O | -12 |
| C[C@H]1CN(Cc2cccc(F)c2)C[C@@]12CCN(CC(=O)N(C)C)C2=O | -5.99 |
| COc1ccc(CN2CCc3[nH]nc(C(=O)N(C)C)c3C2)cc1 | -8.01 |
| CC1c2ncc(CNC(=O)C3CC3)n2CCN1Cc1nccs1 (configuration not stated) | -7.88 |
| CC(C)CCN1C[C@@H]2OCCN(c3ncc(F)cn3)[C@@H]2C1 | -4.42 |
| Cc1ccc(CN2CCc3ncnc(-c4ccoc4)c3CC2)o1 | 2.47 |
| CS(=O)(=O)NC[C@H]1OC[C@H]2CN(Cc3ccsc3)CC[C@H]21 | 2.09 |
| Cn1cc(CN2CCn3cnc(COCC4CC4)c3C2)cn1 | 14.1 |
| Cc1nc(COCc2cnc3n2CCN(C)C3C)cs1 (configuration not stated) | -1.73 |
| CO[C@@H]1CCN(S(=O)(=O)c2cn(C)cn2)[C@H]1Cc1cnn(C)c1 | -0.546 |
| Cc1noc(C)c1CN1CC[C@@H]2O[C@H](COCC3CC3)CC[C@@H]21 | -4.64 |
| CCOC[C@H]1CC[C@H]2[C@H](CCN2Cc2c(C)noc2C)O1 | -3.26 |

| SMILES | cytotoxicity at 70.5 h [%] |
| --- | --- |
| Cc1cc(CN2CC[C@H]3[C@H]2CCN3CC(=O)N(C)C)oc1C | -5 |
| COCCN1C(=O)CCC12CCCN(Cc1ccccc1F)C2 (configuration not stated) | 31.9 |
| O=C1[C@H]2CN(Cc3ccoc3)C[C@H]2CN1CCN1CCCC1 | -12.5 |
| Cc1ccc(CN2C[C@@H]3CCN(Cc4ccncc4)C(=O)[C@H]3C2)s1 | -8.9 |
| CN(C)CCN1C(=O)CCCC12CCCN(Cc1cccs1)C2 (configuration not stated) | -9.38 |
| CCOCC(=O)N1CCC2(CC1)COCCN2CCN(C)C | -9.1 |
| Cc1ccc(CN2CCc3nnc(COCCN(C)C)n3CC2)o1 | -11.2 |
| Cc1nc(CN2CCc3ncnc(-c4cccnc4)c3CC2)cs1 | 42.8 |
| CC[C@@H]1N(Cc2ccncc2)CCC[C@]12CCC(=O)N2CCOC | -4.38 |
| c1cc(CN2CC[C@@H]3[C@@H](CO[C@H]3CN3CCOCC3)C2)cs1 | -1.87 |
| Cc1ccc(CN2CCc3ncnc(-c4ccncc4)c3CC2)o1 | -7.23 |
| Cc1cccc(N2CCc3ncc(CNc4ccccn4)n3CC2)n1 | -3.22 |
| Cn1cnc2c1C(COCC1CC1)CN(c1ncccn1)C2 (configuration not stated) | 2.85 |
| O=C(NCc1ccccn1)[C@]12COC[C@H]1CN(Cc1ccsc1)C2 | -0.962 |
| CC1c2ncc(Cn3cccn3)n2CCN1Cc1cccnc1 (configuration not stated) | -1.36 |
| Cc1cncc(C(=O)N2CCO[C@H]3[C@H](OCCN(C)C)CC[C@@H]32)c1 | -12.9 |
| COCCN1C[C@@H](C)[C@@]2(COCCN(C(=O)c3cccc(C)n3)C2)C1 | 0.709 |
| CC1c2ncc(CN3CCN(C)CC3)n2CCN1Cc1ccc(F)cc1 (configuration not stated) | -2.82 |
| CC1c2ncc(CN3CCN(C)CC3)n2CCN1Cc1ccccn1 (configuration not stated) | -0.798 |
